Compound: CC(O)(CS(=O)(=O)c1ccc(F)cc1)C(=O)Nc1ccc(C#N)c(C(F)(F)F)c1 [Bicalutamide] + COc1cc2c(Oc3ccc(NC(=O)C4(C(=O)Nc5ccc(F)cc5)CC4)cc3F)ccnc2cc1OCCCN1CCOCC1 [Foretinib] (partner 0.25 µM)
Experiment: relative viability (nuclei count vs DMSO), 5 days (fraction); higher = more cells survive
Settings: first compound 0.08 µM
In short: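 A single step with final 0.05% Triton X-100, 1% formaldehyde and 1 ug/ml Hoechst fixed the cells and stained nuclei 5 days after treatment. Lung cancer cell lines in 1536-well plates had been treated by pin tool the day after seeding with one drug alone or a fixed anchor-drug dose plus five library-drug doses (not always all listed) in √10 steps, and nuclei were counted on 4× images. Relative viability is the ratio of nuclei in treated wells to nuclei in vehicle wells, taken as the median of duplicate plates.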

Cell Line	relative viability
NCI-H2228	0.933
EMC-BAC-2	1.02
NCI-H2087	1.14
Calu-6	0.931
HCC-366	0.937
NCI-H1666	0.927
NCI-H647	1.08
LK-2	1.44
NCI-H2126	1.21
NCI-H2342	1.08
SK-MES-1	0.832
H3255	0.901
COR-L23	1.04
COR-L 105	1.35
IA-LM	1.22
LOU-NH91	0.969

Cell Line	relative viability
ChaGo-K-1	0.897
NCI-H2170	0.993
NCI-H3122	1.02
HOP-62	1.11
A549	0.907
SW 900	1.15
LU99A	0.773
BEN	0.604
NCI-H727	1
NCI-H1299	1.04
NCI-H650	1.07
NCI-H1563	0.888
ABC-1	0.987
NCI-H358	0.767
NCI-H661	1.02

Same assay, conditions: first compound 0.253 µM

Cell Line	relative viability
NCI-H1623	0.884
NCI-H838	0.963
NCI-H1650	1.17
EBC-1	0.115
NCI-H1703	0.36
NCI-H2009	1.23
NCI-H1993	0.7
PC-14	0.905
LCLC-103H	0.702
NCI-H596	0.87
NCI-H2228	0.843
EMC-BAC-2	0.867
NCI-H2087	1.17
Calu-6	0.916
HCC-366	0.842
NCI-H1666	0.975
NCI-H647	1.16
LK-2	0.992
NCI-H2126	1.19
NCI-H2342	1.13
SK-MES-1	0.829

Cell Line	relative viability
H3255	0.827
COR-L23	0.981
COR-L 105	0.976
IA-LM	1.1
LOU-NH91	0.79
ChaGo-K-1	0.748
NCI-H2170	1
NCI-H3122	0.9
HOP-62	1.13
A549	1.02
SW 900	0.866
LU99A	0.815
BEN	0.609
NCI-H727	0.689
NCI-H1299	1.08
NCI-H650	1.07
NCI-H1563	0.872
ABC-1	1.05
NCI-H358	0.565
NCI-H661	1.04

Same assay, conditions: first compound 0.8 µM

Cell Line	relative viability
NCI-H1623	0.918
NCI-H838	1.08
NCI-H1650	1.14
EBC-1	0.0994
NCI-H1703	0.41
NCI-H2009	1.19
NCI-H1993	0.866
PC-14	1.03
LCLC-103H	0.907
NCI-H596	0.976
NCI-H2228	1
EMC-BAC-2	1.02
NCI-H2087	1.15
Calu-6	0.853
HCC-366	0.919
NCI-H1666	0.913
NCI-H647	1.23
LK-2	1.63
NCI-H2126	1.36
NCI-H2342	1.09

Cell Line	relative viability
SK-MES-1	0.979
COR-L23	1.12
COR-L 105	0.859
IA-LM	1.17
LOU-NH91	0.963
ChaGo-K-1	0.937
NCI-H2170	1.1
NCI-H3122	0.996
HOP-62	1.29
A549	1.01
SW 900	1.04
LU99A	0.892
BEN	0.791
NCI-H727	1.23
NCI-H1299	1.09
NCI-H650	1.17
NCI-H1563	0.89
ABC-1	1.18
NCI-H358	0.958
NCI-H661	1.04

Same assay, conditions: first compound 2.53 µM

Cell Line	relative viability
NCI-H1623	0.869
NCI-H838	0.928
NCI-H1650	1.27
EBC-1	0.121
NCI-H1703	0.293
NCI-H2009	1.17
NCI-H1993	0.971
PC-14	0.965
LCLC-103H	0.698
NCI-H596	0.946
NCI-H2228	1.02
EMC-BAC-2	0.928
NCI-H2087	0.993
Calu-6	0.843
HCC-366	0.995
NCI-H1666	0.977
NCI-H647	1.14
LK-2	1.32
NCI-H2126	1.18
NCI-H2342	1.08
SK-MES-1	1.03

Cell Line	relative viability
H3255	0.84
COR-L23	1.02
COR-L 105	0.784
IA-LM	1.18
LOU-NH91	0.96
ChaGo-K-1	0.825
NCI-H2170	0.98
NCI-H3122	1.01
HOP-62	1.26
A549	0.927
SW 900	1.07
LU99A	0.578
BEN	0.682
NCI-H727	0.914
NCI-H1299	1.08
NCI-H650	0.936
NCI-H1563	0.897
ABC-1	1.24
NCI-H358	0.73
NCI-H661	0.958
